Source: publication PMC7106896, “Synthesis and biological evaluation of 2-(4-methylsulfonyl phenyl) indole derivatives: multi-target compounds with dual antimicrobial and anti-inflammatory activities” (BMC Chemistry, 2020)
Values after ≈ are worked out from the molar mass of the structure shown.

Key:
[1] = test system: Acinetobacter baumannii (ATCC 19606); assay: Antimicrobial screening (CO-ADD), growth inhibition at single concentration; type: cell-based; conditions: ATCC19606, at 32 µg/mL concentration, read-out: growth inhibition % Ab (A. baumannii)
Protocol: (§1) The antimicrobial study was performed by CO-ADD (The Community for Antimicrobial Drug Discovery), funded by the Wellcome Trust (UK) and The University of Queensland (Australia). Evaluation of all synthesized compounds for their antimicrobial activities was done against five pathogenic bacteria, methicillin-resistant Staphylococcus aureus (ATCC 43300) as Gram-positive bacteria, Escherichia coli (ATCC 25922), Klebsiella pneumonia (ATCC 700603), Acinetobacter baumannii (ATCC 19606) and Pseudomonas aeruginosa (ATCC 27853) as Gram-negative bacteria and antifungal activity against two pathogenic fungal strains Candida albicans (ATCC 90028) and Cryptococcus neoformans var. grubii (H99; ATCC 208821) (Table 1).

[2] = test system: Escherichia coli (ATCC 25922); assay: as above; type: cell-based; conditions: ATCC25922, at 32 µg/mL concentration, read-out: growth inhibition % Ec (E. coli)
Protocol: as §1

[3] = test system: Klebsiella pneumonia (ATCC 700603); assay: as above; type: cell-based; conditions: Klebsiella pneumoniae, ATCC700603; at 32 µg/mL concentration; read-out: growth inhibition % Kp (K. pneumoniae)
Protocol: as §1

[4] = test system: Pseudomonas aeruginosa (ATCC 27853); assay: as above; type: cell-based; conditions: ATCC27853, at 32 µg/mL concentration, read-out: growth inhibition % Pa (P. aeruginosa)
Protocol: as §1

[5] = test system: methicillin-resistant Staphylococcus aureus (ATCC 43300); assay: as above; type: cell-based; conditions: ATCC 43300 / MRSA, at 32 µg/mL concentration, read-out: growth inhibition % Sa (MRSA)
Protocol: as §1

[6] = test system: Candida albicans (ATCC 90028); assay: Antifungal screening (CO-ADD), growth inhibition at single concentration; type: cell-based; conditions: ATCC90028, at 32 µg/mL concentration, read-out: growth inhibition % Ca (C. albicans)
Protocol: as §1

MRSA = assay: Minimal inhibitory concentration measurement; type: cell-based; conditions: Staphylococcus aureus, read-out: MIC Sa (MRSA)
Protocol: (§3) The antimicrobial and antifungal screening was performed according to CO-ADD (The Community for Antimicrobial Drug Discovery) procedures [27].

E. coli = assay: Minimal inhibitory concentration measurement; type: cell-based; conditions: Escherichia coli; read-out: MIC Ec (E. coli)
Protocol: as §3

P. aeruginosa = assay: Minimal inhibitory concentration measurement; type: cell-based; conditions: Pseudomonas aeruginosa; read-out: MIC Pa (P. aeruginosa)
Protocol: as §3

A. baumannii = assay: Minimal inhibitory concentration measurement; type: cell-based; conditions: Acinetobacter baumannii; read-out: MIC Ab (A. baumannii)
Protocol: as §3

C. albicans = assay: Minimal inhibitory concentration measurement; type: cell-based; conditions: Candida albicans; read-out: MIC Ca (C. albicans)
Protocol: as §3

[7] = test system: C. neoformans var. grubii; assay: Minimal inhibitory concentration measurement; type: cell-based; conditions: Cryptococcus neoformans; read-out: MIC Cn (C. neoformans var. grubii)
Protocol: as §3

[8] = Cytotoxicity against human embryonic kidney cell line; type: cell-based; conditions: read-out: CC50 (concentration at 50% cytotoxicity)
Protocol: (§2) The safety margin for the active compounds to human cells was determined through cytotoxicity against human embryonic kidney cell line and hemolysis of human red blood cells. The tested compounds 7a, 7g, and 7i were tolerated and non-toxic to human cells as the cytotoxic and hemolytic dose was higher than the therapeutic dose (Table 2).

human red blood cells = assay: Hemolysis of human red blood cells; type: cell-based
Protocol: as §2

Ovine COX-1 = target: T1, Ovine COX-1 (Ovis aries, UniProt P05979); assay: In vitro COX inhibition colorimetric assay; type: biochemical
T1 construct: purchased Cayman Chemical, Ann Arbor, MI, USA 760111
T1 sequence (P05979 25-600): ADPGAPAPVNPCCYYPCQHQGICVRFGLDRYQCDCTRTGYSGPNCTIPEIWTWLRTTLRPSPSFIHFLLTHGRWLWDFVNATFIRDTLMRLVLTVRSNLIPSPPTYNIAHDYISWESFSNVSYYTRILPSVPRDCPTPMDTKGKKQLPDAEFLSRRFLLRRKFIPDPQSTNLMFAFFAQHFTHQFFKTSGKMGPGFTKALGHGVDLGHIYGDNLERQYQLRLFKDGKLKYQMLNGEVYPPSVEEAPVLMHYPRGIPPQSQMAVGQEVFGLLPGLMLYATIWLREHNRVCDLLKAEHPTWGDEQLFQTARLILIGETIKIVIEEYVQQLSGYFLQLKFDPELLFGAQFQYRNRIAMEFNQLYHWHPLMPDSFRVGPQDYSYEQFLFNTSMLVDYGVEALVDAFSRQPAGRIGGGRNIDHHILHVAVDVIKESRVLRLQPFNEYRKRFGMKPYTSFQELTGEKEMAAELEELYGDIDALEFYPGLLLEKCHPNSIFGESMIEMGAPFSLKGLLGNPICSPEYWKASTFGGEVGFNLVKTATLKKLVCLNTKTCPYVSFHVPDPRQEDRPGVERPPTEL

human recombinant COX-2 = assay: In vitro COX inhibition colorimetric assay; type: biochemical; conditions: COX-1 IC50/COX-2 IC50
[9] = test system: carrageenan-induced rat paw edema; assay: Carrageenan-induced rat paw edema assay; type: in vivo; conditions: for Edema thickness (mm) ± SEM: n = 4
Protocol: Pretreatment of rats with compounds 7a–k, 8a–c, and 9a–c before injection with carrageenan in rat paw which induces inflammation and then the percentage of paw edema reduction was measured after certain hours according to previously reported procedures.

[10] = test system: MRSA bacteria and E. coli, K. pneumoniae, P. aeruginosa, and A. baumannii; assay: Antibacterial screening, result pooled over the five bacteria; type: cell-based; conditions: read-out: growth inhibition, range over MRSA, E. coli, K. pneumoniae, P. aeruginosa and A. baumannii
Protocol: as §1

| Compound | inhibition at 32 µg/mL [1] [%] | inhibition at 32 µg/mL [2] [%] | inhibition at 32 µg/mL [3] [%] | inhibition at 32 µg/mL [4] [%] | inhibition at 32 µg/mL [5] [%] | inhibition at 32 µg/mL [6] [%] | MIC (MRSA) [µg/mL] | MIC (E. coli) [µg/mL] | MIC (P. aeruginosa) [µg/mL] | MIC (A. baumannii) [µg/mL] | MIC (C. albicans) [µg/mL] | MIC [7] [µg/mL] | CC50 [8] [µg/mL] | HC10 (concentration at 10% hemolysis) (human red blood cells) [µg/mL] | IC50 (Ovine COX-1) [µM] | Selectivity index (SI) (human recombinant COX-2) | Edema inhibition % ([9]; 1 h) [%] | Edema thickness (mm) ± SEM ([9]; 1 h) [mm] | Edema inhibition % ([9]; 3 h) [%] | Edema thickness (mm) ± SEM ([9]; 3 h) [mm] | also measured |
| --- | --- | --- | --- | --- | --- | --- | --- | --- | --- | --- | --- | --- | --- | --- | --- | --- | --- | --- | --- | --- | --- |
| CS(=O)(=O)c1ccc(-c2[nH]c3ccccc3c2C=NNc2ccc(F)cc2)cc1 [Compound 7a, 3-((2-(4-Fluorophenyl)hydrazono)methyl)-2-(4-(methylsulfonyl)phenyl)-1H-indole] | 96.7 | 96.5 | 97.6 | 97.8 | 95.8 | 6.28 | 8 (≈ 19.6 µM) | ≤ 0.25 | 4 (≈ 9.82 µM) | 16 (≈ 39.3 µM) | > 32 | > 32 | > 32 | > 32 | 10.3 | 93.81 | 74.1 | 0.679 ± 0.03 | 88.7 | 0.250 ± 0.021 | Edema inhibition % ([9]; 6 h): 92%; Edema thickness (mm) ± SEM ([9]; 6 h): 0.151 ± 0.007 mm; inhibition at 32 µg/mL [10]: 85.8 to 97.8%; melting point: 204 to 206 °C; MIC Kp (K. pneumoniae) (K. pneumoniae): 8 µg/mL (≈ 19.6 µM) |
| CS(=O)(=O)c1ccc(-c2[nH]c3ccc(F)cc3c2/C=N/Nc2ccc(S(N)(=O)=O)cc2)cc1 [Compound 7i, 4-(2-((5-Fluoro-2-(4-(methylsulfonyl)phenyl)-1H-indol-3yl)methylene)hydrazinyl) benzene sulfonamide] | 94.3 | 96.5 | 94.4 | 96.9 | 95.2 | 15.3 | 2 (≈ 4.11 µM) | ≤ 0.25 | 2 (≈ 4.11 µM) | 4 (≈ 8.22 µM) | > 32 | > 32 | 2.99 (≈ 6.14 µM) | > 32 | 13.2 | 132 | 73.1 | 0.705 ± 0.047 | 94.3 | 0.127 ± 0.009 | Edema inhibition % ([9]; 6 h): 90.1%; Edema thickness (mm) ± SEM ([9]; 6 h): 0.187 ± 0.015 mm; inhibition at 32 µg/mL [10]: 85.8 to 97.8%; melting point: 212 to 214 °C; MIC Kp (K. pneumoniae) (K. pneumoniae): 2 µg/mL (≈ 4.11 µM) |
| Cc1ccc(NN=Cc2c(-c3ccc(S(C)(=O)=O)cc3)[nH]c3ccc(C)cc23)cc1 [Compound 7g, 5-Methyl-2-(4-(methylsulfonyl)phenyl)-3-((2-(p-tolyl)hydrazono)methyl)-1H-indole] | 85.8 | 86.4 | 87.5 | 94.6 | 96.2 | 4.88 | 1 (≈ 2.4 µM) | ≤ 0.25 | 1 (≈ 2.4 µM) | 4 (≈ 9.58 µM) | > 32 | > 32 | 4.2 (≈ 10.1 µM) | > 32 | 7.9 | 39.50 | 58.5 | 1.088 ± 0.090 | 72.3 | 0.618 ± 0.010 | Edema inhibition % ([9]; 6 h): 67.4%; Edema thickness (mm) ± SEM ([9]; 6 h): 0.618 ± 0.045 mm; inhibition at 32 µg/mL [10]: 85.8 to 97.8%; melting point: 166 to 168 °C; MIC Kp (K. pneumoniae) (K. pneumoniae): 1 µg/mL (≈ 2.4 µM) |
